Experimental data taken from patent US10065950B2, “Substituted thiazoles as HIV integrase inhibitors” (Japan Tobacco Inc., priority 2010, dated 2018).

Biological target: HIV-1 pNL4-3 integrase (Human immunodeficiency virus type 1 group M subtype B (isolate NY5) (HIV-1), UniProt P12497)
Experiment: Determination of enzyme (HIV integrase) inhibitory activity
Assay type: biochemical
Conditions: calculated from inhibition rate (fluorescence)
Description: The following explains evaluation methods of the HIV integrase inhibitory activity of the compound of the present invention.
A full-length gene sequence (Accession No.: M19921) of HIV-1 pNL4-3 integrase was inserted into restriction enzyme Nde I and Xho I sites of plasmid pET21a(+) (manufactured by Novagen) to construct an integrase expression vector pET21a-IN-Wild type.
Escherichia coli recombinant BL21(DE3) transformed with plasmid pET21a-IN-Wild type obtained in (i) was shake cultured at 30° C. in a liquid medium containing ampicillin. When the culture reached the logarithmic growth phase, isopropyl-β-D-thiogalactopyranoside was added to promote expression of integrase gene. The culture was continued for 5 hr to promote accumulation of the integrase protein. The recombinant E. coli was collected in pellets by centrifugal separation and preserved at −80° C.
This Escherichia coli was suspended in Lysis buffer (50 mM Tris-HCl (pH 7.6), 10 mM MgCl2, 5 mM DTT), and disrupted by repeating treatments of pressurization and depressurization, and insoluble fraction was collected by centrifugation at 4° C., 18,000 rpm for 60 min. This was suspended in Lysis buffer containing a protease inhibitor, […] and 10 mM CHAPS were added, and the mixture was stirred at 4° C. for 30 min. Water-soluble fraction was collected by centrifugation at 4° C., 9,000 rpm for 30 min. The obtained fraction was diluted with a column buffer (50 mM Tris-HCl (pH 7.6), 1 mM DTT, 10% Glycerol, 10 mM CHAPS) to 5-fold, and the mixture was applied to heparin column (HiPrep 16/10 Heparin FF column: manufactured by GE Healthcare Bio-Sciences). Using a column buffer containing 1M NaCl, a protein was eluted with 0-1M NaCl concentration gradient, and an eluted fraction containing an integrase protein was collected. The obtained fraction was diluted 5-fold with a column buffer (50 mM Tris-HCl (pH 7.6), 1 mM DTT, 10% Glycerol, 10 mM CHAPS), and the mixture was applied to cation exchange column (Mono-S column: manufactured by GE Healthcare Bio-Sciences). Using a column buffer containing 1M NaCl, a protein was eluted with 0-1M NaCl concentration gradient, and an eluted fraction containing an integrase protein was collected. The obtained fractions of the integrase protein were collected, and preserved at −80° C.
The following DNA synthesized by FASMAC was dissolved in TE buffer (10 mM Tris-hydrochloric acid (pH 8.0), 1 mM EDTA) and mixed with donor DNA, target DNA, and each complementary strand (+ and − strands) to 1 μM. The mixture was heated at 95° C. for 5 min, 80° C. for 10 min, 70° C. for 10 min, 60° C. for 10 min, 50° C. for 10 min and 40° C. for 10 min and kept at 25° C. to give a double stranded DNA, which was used for the test.
Donor DNA (+strand having biotin attached to the 5′ terminal)
Target DNA (+, − strands both having digoxigenin attached to the 3′ terminal)
The donor DNA was diluted with TE buffer to 20 nM, of which 50 μL was added to each well of streptavidin-coated black plate (manufactured by PIAS Corporation) and allowed to adsorb at 37° C. for 20 min. The plate was washed with phosphate buffer (Dulbecco's PBS, Sanko Junyaku Co., Ltd.) containing 0.1% Tween 20 and phosphate buffer. Then, an enzyme reaction mixture (70 μL), a test substance (10 μL) diluted with the enzyme reaction mixture and 0.75 μM integrase protein (10 μL) were added to each well and the mixture was reacted at 37° C. for 60 min. composition of enzyme reaction mixture: 30 mM MOPS (3-morpholinopropanesulfonic acid), 5 mM magnesium chloride, 3 mM DTT (dithiothreitol), 0.1 mg/mL BSA (bovine serum albumin), 5% glycerol, 10% DMSO (dimethyl sulfoxide), 0.01% Tween 20.
Then, 25 nM target DNA (10 μL) was added, and the mixture was reacted at 37° C. for 20 min and washed with phosphate buffer containing 0.1% Tween 20 to stop the reaction. […]

Compound | IC50
CC(C)N1CC(C)(C(=O)N2CCOCC2)n2cc(-c3ncc(Cc4ccc(F)cc4F)s3)c(=O)c(O)c2C1=O (stereo not drawn) [Example 52] | 13 nM
CC(C)NC(=O)[C@]1(C)Cn2cc(-c3nnc(Cc4ccc(F)cc4)s3)c(=O)c(O)c2C(=O)N1C(C)C [Example 308] | 13 nM
COCCOC[C@H]1CN(CC(C)C)C(=O)c2c(O)c(=O)c(-c3ncc(Cc4ccc(F)cc4F)s3)cn21 [Example 57] | 11 nM
CCNC(=O)[C@]1(COC)CN(C(C)C)C(=O)c2c(O)c(=O)c(-c3ncc(Cc4ccc(F)cc4)s3)cn21 [Example 393] | 15 nM
CC(C)N1C(=O)c2c(O)c(=O)c(-c3nnc(Cc4ccc(F)cc4)s3)cn2CC12CC2 [Example 176] | 8.5 nM
CC(C)[C@H]1Cn2cc(-c3nnc(Cc4ccc(F)cc4)s3)c(=O)c(O)c2C(=O)N1C(C)C [Example 224] | 7.3 nM
COCCOC[C@H]1CN(CC2CC2)C(=O)c2c(O)c(=O)c(-c3nnc(Cc4ccc(F)cc4)s3)cn21 [Example 118] | 13 nM
CNC(=O)[C@@]1(C)CN(C(C)C)C(=O)c2c(O)c(=O)c(-c3nnc(Cc4ccc(F)cc4)s3)cn21 [Example 185] | 15 nM
CCN1C[C@](C)(C(=O)N(C)C)n2cc(-c3nnc(Cc4ccc(F)cc4)s3)c(=O)c(O)c2C1=O [Example 199] | 8.4 nM
CC[C@@H]1Cn2cc(-c3nnc(Cc4ccc(F)cc4)s3)c(=O)c(O)c2C(=O)N1C(C)C [Example 278] | 9.9 nM
CC(C)N1CC(CO)n2cc(-c3ncc(Cc4ccc(F)cc4F)s3)c(=O)c(O)c2C1=O (stereo not drawn) [Example 19] | 8.1 nM
CC(C)N1C[C@@H](C)n2cc(-c3nnc(Cc4ccc(F)cc4F)s3)c(=O)c(O)c2C1=O [Example 132] | 9.1 nM
CC(C)N1C[C@](C)(C(=O)N2CCCC2)n2cc(-c3nnc(Cc4ccc(F)cc4F)s3)c(=O)c(O)c2C1=O [Example 170] | 12 nM
COCCOC[C@@]1(C)CN(C2CC2)C(=O)c2c(O)c(=O)c(-c3nnc(Cc4ccc(F)cc4)s3)cn21 [Example 297] | 20 nM
CC(C)N1C[C@@](C)(C(=O)N(C)C)n2cc(-c3ncc(Cc4ccc(F)cc4)s3)c(=O)c(O)c2C1=O [Example 234] | 18 nM
CC(C)N1CC(C)(CO)n2cc(-c3ncc(Cc4ccc(F)cc4F)s3)c(=O)c(O)c2C1=O (stereo not drawn) [Example 20] | 17 nM
CC[C@H](C)N1C[C@@H](COC)n2cc(-c3nnc(Cc4ccc(F)cc4)s3)c(=O)c(O)c2C1=O [Example 166] | 12 nM
CC[C@@H](C)N1C[C@@H](COC)n2cc(-c3nnc(Cc4ccc(F)cc4)s3)c(=O)c(O)c2C1=O [Example 167] | 10 nM
CC(C)N1CC(C)(C(=O)N2CCC2)n2cc(-c3ncc(Cc4ccc(F)cc4F)s3)c(=O)c(O)c2C1=O (stereo not drawn) [Example 94] | 8.8 nM
CC(C)N1C(=O)c2c(O)c(=O)c(-c3nnc(Cc4ccc(F)cc4)s3)cn2C[C@@]1(C)C(=O)NC(C)(C)C [Example 309] | 8.8 nM
COCCOC[C@H]1Cn2cc(-c3ncc(Cc4ccc(F)cc4F)s3)c(=O)c(O)c2C(=O)N1CC(C)C [Example 58] | 17 nM
CC(=O)N(C)C[C@@]1(C)CN(C(C)C)C(=O)c2c(O)c(=O)c(-c3nnc(Cc4ccc(F)cc4F)s3)cn21 [Example 197] | 14 nM
CCN1C(=O)c2c(O)c(=O)c(-c3nnc(Cc4ccc(F)cc4)s3)cn2C[C@H]1C [Example 328] | 7.1 nM
CN(C)C(=O)[C@@]1(C)CN(C)C(=O)c2c(O)c(=O)c(-c3nnc(Cc4ccc(F)cc4)s3)cn21 [Example 313] | 9.7 nM
COC[C@H]1CN(CC2CC2)C(=O)c2c(O)c(=O)c(-c3nnc(Cc4ccc(F)cc4)s3)cn21 [Example 116] | 9.6 nM
CC[C@@H](C)N1C[C@H](COC)n2cc(-c3nnc(Cc4ccc(F)cc4F)s3)c(=O)c(O)c2C1=O [Example 147] | 8.3 nM

Compound | IC50
CC(C)N1CC(CC(=O)N2CCCCC2)n2cc(-c3ncc(Cc4ccc(F)cc4F)s3)c(=O)c(O)c2C1=O (stereo not drawn) [Example 41] | 7.2 nM
CC(C)N1CC(C)(C(=O)N(C)C)n2cc(-c3ncc(Cc4ccc(F)cc4F)s3)c(=O)c(O)c2C1=O (stereo not drawn) [Example 152] | 5.9 nM
CCNC(=O)[C@]1(C)CN(CC)C(=O)c2c(O)c(=O)c(-c3ncc(Cc4ccc(F)cc4)s3)cn21 [Example 249] | 12 nM
CCC(OC)[C@H]1CN(C(C)C)C(=O)c2c(O)c(=O)c(-c3nnc(Cc4ccc(F)cc4)s3)cn21 (stereo partly drawn) [Example 383] | 7.9 nM
CCCN1C[C@H](COCC)n2cc(-c3nnc(Cc4ccc(F)cc4)s3)c(=O)c(O)c2C1=O [Example 357] | 7.3 nM
COCC1Cn2cc(-c3nnc(Cc4ccc(F)cc4F)s3)c(=O)c(O)c2C(=O)N1CC(C)C (stereo not drawn) [Example 43] | 4.6 nM
CC(C)N1C[C@](C)(C(=O)N(C)C)n2cc(-c3nnc(Cc4ccc(F)cc4F)s3)c(=O)c(O)c2C1=O [Example 169] | 12 nM
CCN1C(=O)c2c(O)c(=O)c(-c3ncc(Cc4ccc(F)cc4)s3)cn2C[C@@]1(C)C(=O)N1CCCC1 [Example 254] | 7.6 nM
CC(C)N1CC(C#N)n2cc(-c3ncc(Cc4ccc(F)cc4F)s3)c(=O)c(O)c2C1=O (stereo not drawn) [Example 79] | 6.4 nM
CCNC(=O)[C@@]1(C)CN(C2CC2)C(=O)c2c(O)c(=O)c(-c3nnc(Cc4ccc(F)cc4)s3)cn21 [Example 187] | 19 nM
COC[C@@H]1Cn2cc(-c3nnc(CCc4ccc(F)cc4F)s3)c(=O)c(O)c2C(=O)N1C(C)C [Example 317] | 9.8 nM
CCC(=O)N(C)C[C@@]1(C)CN(C(C)C)C(=O)c2c(O)c(=O)c(-c3nnc(Cc4ccc(F)cc4F)s3)cn21 [Example 207] | 24 nM
CCN1C(=O)c2c(O)c(=O)c(-c3nnc(Cc4ccc(F)cc4)s3)cn2C[C@]1(C)COCCOC [Example 323] | 14 nM
COCCOC[C@H]1CN(C(C)C)C(=O)c2c(O)c(=O)c(-c3nnc(Cc4ccc(F)cc4F)s3)cn21 [Example 44] | 8.1 nM
CC(C)CNC(=O)[C@@]1(C)CN(C(C)C)C(=O)c2c(O)c(=O)c(-c3nnc(Cc4ccc(F)cc4)s3)cn21 [Example 186] | 18 nM
CCOc1cc(F)ccc1Cc1nnc(-c2cn3c(c(O)c2=O)C(=O)N(C(C)C)C[C@@H]3COC)s1 [Example 219] | 15 nM
CC(C)N1C(=O)c2c(O)c(=O)c(-c3nnc(Cc4ccc(F)cc4)s3)cn2C[C@@]1(C)C(=O)N1CCC1 [Example 310] | 9.9 nM
CC(C)N1CC(C)(C(=O)O)n2cc(-c3ncc(Cc4ccc(F)cc4)s3)c(=O)c(O)c2C1=O (stereo not drawn) [Example 112] | 19 nM
CN(C)C(=O)CC1CN(C2CC2)C(=O)c2c(O)c(=O)c(-c3ncc(Cc4ccc(F)cc4F)s3)cn21 (stereo not drawn) [Example 164] | 6.5 nM
CC(C)N1CC(C(=O)O)n2cc(-c3ncc(Cc4ccc(F)cc4F)s3)c(=O)c(O)c2C1=O (stereo not drawn) [Example 23] | 12 nM
COC[C@H]1[C@@H](C)n2cc(-c3nnc(Cc4ccc(F)cc4)s3)c(=O)c(O)c2C(=O)N1C(C)C [Example 353] | 13 nM
COCCN(C)C(=O)[C@]1(C)CN(C(C)C)C(=O)c2c(O)c(=O)c(-c3ncc(Cc4ccc(F)cc4)s3)cn21 [Example 235] | 16 nM
CC(C)N1CC(C)(CO)n2cc(-c3ncc(Cc4ccc(F)cc4)s3)c(=O)c(O)c2C1=O (stereo not drawn) [Example 111] | 20 nM
COC[C@H]1CN(C(C)C)C(=O)c2c(O)c(=O)c(-c3nnc(Cc4ccc(F)cc4C)s3)cn21 [Example 231] | 11 nM
COCCOC[C@@H]1CN(C(C)C)C(=O)c2c(O)c(=O)c(-c3nnc(Cc4ccc(F)cc4F)s3)cn21 [Example 46] | 11 nM
